# Test results taken from PubChem BioAssay AID1845206 (Molecular Pharmacology Branch, DTP, NCI, 2023).
# System: NCI-H1618 multicellular tumor spheroid viability
# Test: Anticancer human tumor NCI-H1618 cell line growth inhibition;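 note: spheroids exposed to agents for 7 days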
# Conditions: for IC50: curve of first compound; for viability, T/C: stronger effect = lower value
# Excerpt: Multicellular complex tumor spheroid response to DNA repair inhibitors in combination with DNA-damaging drugs
# This study explores the anticancer activities of DNA-damaging drugs and inhibitors of DNA damage repair, both as single agents and in combinations. Complex tumor spheroids comprised of malignant cells, endothelial cells and mesenchymal stem cells served as an in vitro model for human solid tumors. This model system incorporates physiologically relevant features and patient-derived or established malignant cell lines with clinically relevant genetic alterations from many tumor types. Twenty-six patient-derived or established malignant cell lines were evaluated representing sarcoma, melanoma, small cell lung cancer (SCLC), non-small cell lung cancer (NSCLC), as well as bladder, ovarian and pancreatic cancers. The concentration ranges selected for each drug and investigational agent were based upon clinically achievable concentrations if the clinical Cmax of the agent was known.
# Compounds. The drugs and compounds olaparib (NSC753686), talazoparib (NSC767125), berzosertib (NSC777718), elimusertib (NSC800525), nedisertib (NSC802822), VX-984 (NSC792969), AZD-1390 (NSC803789), temozolomide (NSC362856), topotecan (NSC609699), trabectedin (NSC813783), staurosporine (NSC755774), and gemcitabine (NSC613327) were obtained from the National Cancer Institute (NCI) Developmental Therapeutics Program Chemical Repository. The FDA-approved anticancer drug set is available from the Developmental Therapeutics Program at https://dtp.cancer.gov/organization/dscb/obtaining/available_plates.htm. […] The stock solutions were prepared in dimethyl sulfoxide (DMSO, Sigma-Aldrich, St. Louis, MO, cat. D2650) at 400-fold the tested concentration and stored at -70 degrees C. Prior to their use, the stock solutions were diluted in fresh medium and the final DMSO concentration in the assay was 0.25% (v/v). All drugs and investigational agents were tested over a range starting from a high concentration at or near the clinical Cmax and decreasing in half-log increments. If the clinical Cmax for an agent had not been determined, the highest concentration tested was 10 microM.
# Cell Lines. The patient-derived cancer cell (PDC) lines: 156681-154-R-J1-PDC, 283228-195-R-J1-PDC, 287954-098-R-J1-PDC, 292921-168-R-J2-PDC, 349418-098-R-PDC, 425362-245-T-J1-PDC, 556581-035-R-J1-PDC, and BL0293-F563-PDC were received from the NCI Patient-Derived Models Repository (PDMR, https://pdmr.cancer.gov). The established cell lines HS-SY-2 (RRID:CVCL_8719), MPNST, and SYO-1 (RRID:CVCL_7146) were obtained from the Sloan Kettering Institute. The alveolar soft parts sarcoma cell line ASPS-1 (RRID:CVCL_S738) was established at the NCI and grown from internal seed stocks. The following established cell lines were purchased from the American Type Culture Collection (ATCC, Manassas, VA): G-401 (ATCC, cat. CRL-1441, RRID:CVCL_0270), SW982 (ATCC, cat. HTB-93, RRID:CVCL_1734), VA-ES-BJ (ATCC, cat. CRL-2138, RRID:CVCL_1785), NCI-H719 (ATCC, cat. CRL-5837, RRID:CVCL_1582), NCI-H196 (ATCC, cat. CRL-5823, RRID:CVCL_1509), NCI-H841 (ATCC, cat. CRL-5845, RRID:CVCL_1595), NCI-H1618 (ATCC, cat. CRL-5879, RRID:CVCL_1480), NCI-H1876 (ATCC, cat. CRL-5902, RRID:CVCL_1503), DMS 114 (ATCC, cat. CRL-2066; RRID:CVCL_1174), NCI-H211 (ATCC, cat. CRL-5824; RRID:CVCL_1529), and SW 1271 (ATCC, cat. CRL-2177, RRID:CVCL_1716). The small cell lung cancer cell line COR-L88 was purchased from Sigma-Aldrich (cat. 92031917-1VL, RRID:CVCL_1141). The non-small cell lung cancer cell lines NCI-H226 (RRID:CVCL_1544) and NCI-H322M (RRID:CVCL_1557) were established at the NCI and grown from internal seed stocks. Pooled donor human umbilical vein endothelial cells (HUVEC, Lonza, cat. CC-2519) and human mesenchymal stem cells (hMSC, Lonza, cat. PT-2501) were purchased from Lonza (Walkersville, MD).
# Cell Culture. All cells were maintained in an incubator at 37 degrees C and 5% CO2 with 95% humidity. […]
smiles,measurement,setting,value
COc1ccc([C@@H](O)c2cc(-c3ncnc4cc(N5CCOCC5)ccc34)c(F)cc2Cl)nn1 + COc1cc2c(cc1O)CCNC21CSC2c3c(OC(C)=O)c(C)c4c(c3C(COC1=O)N1C(O)C3Cc5cc(C)c(OC)c(O)c5C(C21)N3C)OCO4,IC50,second compound 30 pM,3720 nM
same,IC50,second compound 94.9 pM,1450 nM
same,IC50,second compound 0.0003 µM,< 31.6 nM
same,IC50,second compound 0.000949 µM,< 31.6 nM
same,IC50,second compound 0.003 µM,< 31.6 nM
same,"viability, T/C","second compound 30 pM, first compound 0.0316 µM",94.5%
same,"viability, T/C","second compound 30 pM, first compound 0.1 µM",103%
same,"viability, T/C","second compound 30 pM, first compound 0.316 µM",104%
same,"viability, T/C","second compound 30 pM, first compound 1 µM",97.6%
same,"viability, T/C","second compound 30 pM, first compound 3.16 µM",55.8%
same,"viability, T/C","second compound 30 pM, first compound 10 µM",15%
same,"viability, T/C","second compound 94.9 pM, first compound 0.0316 µM",75.4%
same,"viability, T/C","second compound 94.9 pM, first compound 0.1 µM",82.7%
same,"viability, T/C","second compound 94.9 pM, first compound 0.316 µM",55.5%
same,"viability, T/C","second compound 94.9 pM, first compound 1 µM",65.7%
same,"viability, T/C","second compound 94.9 pM, first compound 3.16 µM",32.6%
same,"viability, T/C","second compound 94.9 pM, first compound 10 µM",3.93%
same,"viability, T/C","second compound 0.0003 µM, first compound 0.0316 µM",14.8%
same,"viability, T/C","second compound 0.0003 µM, first compound 0.1 µM",29.8%
same,"viability, T/C","second compound 0.0003 µM, first compound 0.316 µM",13.9%
same,"viability, T/C","second compound 0.0003 µM, first compound 1 µM",3.02%
same,"viability, T/C","second compound 0.0003 µM, first compound 3.16 µM",3.64%
same,"viability, T/C","second compound 0.0003 µM, first compound 10 µM",0.49%
same,"viability, T/C","second compound 0.000949 µM, first compound 0.0316 µM",4.34%
same,"viability, T/C","second compound 0.000949 µM, first compound 0.1 µM",4.36%
same,"viability, T/C","second compound 0.000949 µM, first compound 0.316 µM",3.33%
same,"viability, T/C","second compound 0.000949 µM, first compound 1 µM",3.78%
same,"viability, T/C","second compound 0.000949 µM, first compound 3.16 µM",5.45%
same,"viability, T/C","second compound 0.000949 µM, first compound 10 µM",0.45%
same,"viability, T/C","second compound 0.003 µM, first compound 0.0316 µM",2.98%
same,"viability, T/C","second compound 0.003 µM, first compound 0.1 µM",4.77%
same,"viability, T/C","second compound 0.003 µM, first compound 0.316 µM",4.99%
same,"viability, T/C","second compound 0.003 µM, first compound 1 µM",3.43%
same,"viability, T/C","second compound 0.003 µM, first compound 3.16 µM",2.67%
same,"viability, T/C","second compound 0.003 µM, first compound 10 µM",1.04%
Cn1ncnc1[C@H]1c2n[nH]c(=O)c3cc(F)cc(c23)N[C@@H]1c1ccc(F)cc1 + COc1cc2c(cc1O)CCNC21CSC2c3c(OC(C)=O)c(C)c4c(c3C(COC1=O)N1C(O)C3Cc5cc(C)c(OC)c(O)c5C(C21)N3C)OCO4,IC50,second compound 30 pM,45.4 nM
same,IC50,second compound 94.9 pM,< 9.49 nM
same,IC50,second compound 0.0003 µM,< 9.49 nM
same,IC50,second compound 0.000949 µM,< 9.49 nM
same,IC50,second compound 0.003 µM,< 9.49 nM
same,"viability, T/C","second compound 30 pM, first compound 0.00949 µM",95.5%
same,"viability, T/C","second compound 30 pM, first compound 0.03 µM",46.9%
same,"viability, T/C","second compound 30 pM, first compound 0.0949 µM",53%
same,"viability, T/C","second compound 30 pM, first compound 0.3 µM",10.2%
same,"viability, T/C","second compound 30 pM, first compound 0.949 µM",2.52%
same,"viability, T/C","second compound 30 pM, first compound 3 µM",3.76%
same,"viability, T/C","second compound 94.9 pM, first compound 0.00949 µM",44.3%
same,"viability, T/C","second compound 94.9 pM, first compound 0.03 µM",37.8%
same,"viability, T/C","second compound 94.9 pM, first compound 0.0949 µM",3.24%
same,"viability, T/C","second compound 94.9 pM, first compound 0.3 µM",2.22%
same,"viability, T/C","second compound 94.9 pM, first compound 0.949 µM",2.54%
same,"viability, T/C","second compound 94.9 pM, first compound 3 µM",4.25%
same,"viability, T/C","second compound 0.0003 µM, first compound 0.00949 µM",10.6%
same,"viability, T/C","second compound 0.0003 µM, first compound 0.03 µM",5.28%
same,"viability, T/C","second compound 0.0003 µM, first compound 0.0949 µM",2.76%
same,"viability, T/C","second compound 0.0003 µM, first compound 0.3 µM",2.88%
same,"viability, T/C","second compound 0.0003 µM, first compound 0.949 µM",3.67%
same,"viability, T/C","second compound 0.0003 µM, first compound 3 µM",2.53%
same,"viability, T/C","second compound 0.000949 µM, first compound 0.00949 µM",4.52%
same,"viability, T/C","second compound 0.000949 µM, first compound 0.03 µM",4.93%
same,"viability, T/C","second compound 0.000949 µM, first compound 0.0949 µM",3.71%
same,"viability, T/C","second compound 0.000949 µM, first compound 0.3 µM",4.08%
same,"viability, T/C","second compound 0.000949 µM, first compound 0.949 µM",3.69%
same,"viability, T/C","second compound 0.000949 µM, first compound 3 µM",4.06%
same,"viability, T/C","second compound 0.003 µM, first compound 0.00949 µM",2.91%
same,"viability, T/C","second compound 0.003 µM, first compound 0.03 µM",4.29%
same,"viability, T/C","second compound 0.003 µM, first compound 0.0949 µM",5.46%
same,"viability, T/C","second compound 0.003 µM, first compound 0.3 µM",2.85%
same,"viability, T/C","second compound 0.003 µM, first compound 0.949 µM",3.44%
same,"viability, T/C","second compound 0.003 µM, first compound 3 µM",2.38%
